Patent US20030203963A1, “Antimicrobial agent” (priority 2001, published 2003)

Experiments:
Ent. aerogenes 10102 = experiment: Bioscreen growth inhibition test; assay type: cell-based, Enterobacter aerogenes; conditions: BS010510, 24 h/30, APP20010213
Method: For broth cultures and Bioscreen testing most bacteria were grown in Brain Heart Infusion (BHI, Oxoid, pH 7.4). Lactobacillus sake A10 was grown in de Man, Rogosa, Sharpe medium ([…], Oxoid). Yeasts were grown in Sabouraud Liquid medium (SLM, Oxoid). Most bacteria were cultured at 30° C. Lactic acid bacteria were grown on solid medium in enriched CO2 atmosphere. Clostridium species were grown in Reinforced Clostridial Medium (RCM) at 37° C. anaerobically. Brochothrix thermosphacta fungi and yeasts were grown at 25° C. Fungi were cultured on Malt Extract Agar (MEA, Oxoid).
An automated Microbiology Reader Bioscreen C was used to measure growth curves of the strains in the presence and absence of APP. The Bioscreen C measures the development of turbidity (i.e. growth) kinetically by vertical photometry in 200 wells of a honeycomb microtitre plate, simultaneously. The system consists of a Bioscreen C analyser, which is an incubator and measurement unit, integrated with a PC, software (BioLink v 5.30), printer and a ‘Honeycomb 2’ cuvette multiwell plate. Growth curve data can be analysed within the BioLink software or exported to programs such as Excel.
Broth culture media were dispensed in 270 μl volumes into the wells as directed. […] (depending on the micro-organism under investigation) with readings taken every 20 minutes after the trays were shaken. […]

[1] = system: Cl. sporogenes (strains 1.221; Campden; ABC20; 4.440); experiment: Sensitivity testing for Clostridium species in cooked meat medium; assay type: cell-based, Clostridium sporogenes; conditions: highest level tested 2000 ppm APP20010215, anaerobically at 37° C.
Method: Stock solutions of APP215 (0.5, 1 and 2%) were prepared and filter-sterilised. Cooked meat medium (CMM, Oxoid) was prepared by distributing 1 g of the medium to individual test tubes, which were then filled with 8.9 ml water. After autoclaving 100 μl of the APP stock solutions were added, to give final concentrations of 0, 500, […] and 2000 ppm APP. The tests were inoculated with […] of Clostridium spores, to give an inoculum level of ca. 10 cfu/ml. The tubes were overlaid with 3 ml of 2% agar to maintain anaerobicity. The tests were incubated at 37° C., and examined daily for signs of growth (turbidity, gas production).

[2] = system: Byssochlamys fulva 040021; experiment: Test in apple juice; assay type: cell-based; conditions: apple juice (pH 3.42) at 25° C., TAJ010530
Method: (§1) 8.9 ml apple juice samples (pH 3.42) were prepared and autoclaved. Batch number APP20010215 (at 138 mg/ml) was used to prepare filter-sterilised stock solutions for 1 ml addition to the juice to achieve 0, 1000, 2000 ppm APP. Tests were inoculated with 100 μl of an appropriately diluted overnight SLM broth of yeast culture or ascospore suspension of Byssochlamys spores prepared earlier. The tests were incubated at 25° C., and examined daily for signs of growth (e.g. turbidity, mycelium development).

[3] = system: Hanseniaspora uvarum CBS5074; experiment: Test in apple juice; assay type: cell-based; conditions: for Growth inhibition: apple juice (pH 3.42) at 25° C., TAJ010530
Method: as §1

[4] = system: Zygosaccharomyces bailii CRA229; experiment: Test in apple juice; assay type: cell-based; conditions: for Growth controlled for: apple juice (pH 3.42) at 25° C., TAJ010530
Method: as §1

Ps. fluorescens 3756 = experiment: Test in cooked minced beef slurry; assay type: cell-based, Pseudomonas fluorescens
Method: 1 kg of minced beef, purchased from the local butcher, was mixed with 1 litre of BHI. 200 g portion of this meat slurry was autoclaved. When the meat had cooled, the pH was recorded (pH 6.24), and each pot was inoculated with 2.0 ml of 10^5 spores or cells and the meat re-mixed thoroughly. Each inoculated 200 g pot was distributed as 3×50 g portions. To each pot 1 ml of SDW, 5% or 10% APP (Batch No. APP20010215) was added, and the meat was again mixed thoroughly. An initial viable count was performed, the meat was incubated at 8° C. and sampled twice weekly. The pH of the cooked minced beef slurry was 6.24.

## O=C1CC(CO)OC=C1O (stereo not shown) [APP, Ascopyrone P]
Ent. aerogenes 10102
  APP level causing total inhibition: 4000 ppm
[1]
  Growth inhibition: No growth inhibition
[2]; 1000 ppm
  Growth inhibition: No growth inhibition
[2]; 2000 ppm
  Growth inhibition: No growth inhibition
[3]; 1000 ppm
  Growth inhibition: No growth inhibition
[3]; 2000 ppm
  Growth inhibition: No growth inhibition
[3]; Apple juice at ambient pH 3.4
  No inhibition (effect on growth of target organism by 2000 ppm APP): H. uvarum
[4]; 1000 ppm
  Growth controlled for: 34 days
[4]; 2000 ppm
  Growth controlled for: 34 days
[4]; Apple juice at ambient pH 3.4
  Partial inhibition (effect on growth of target organism by 2000 ppm APP): Z. bailii
Ps. fluorescens 3756; 1000 ppm, minced beef slurry at 8° C., pH 6.24, TCM010619
  Growth delayed by: 1000 ppm delayed growth by 17 d
Ps. fluorescens 3756; 2000 ppm, minced beef slurry at 8° C., pH 6.24, TCM010619
  Total inhibition for: Total inhibition by 2000 ppm for 27 d
Ps. fluorescens 3756; Cooked minced beef slurry at 8° C. pH 6.24
  Total inhibition (effect on growth of target organism by 2000 ppm APP): Ps. fluorescens
